How the values were obtained:
Type in all cases: cell-based, SD rats
GFAP = test: Western blotting, GFAP expression; details: mean ± SD, n = 3
Protocol: (§1) NSCs at 1 × 10^6 cells/ml in 6‐well plate were treated with IL‐6 and TAT‐KIR as above. Cells were harvested at 3 h, 6 h, 12 h, 24 h, or 7 days after treatment. Cells were suspended in lysis buffer containing 150 μl RIPA (#89900, Pierce) protease and phosphatase inhibitor cocktail (#4693159001 and 04906845001, Roche). Cell lysates were incubated on ice for 20 min and centrifuged at 12,000 rpm for 15 min at 4°C. The proteins in supernatant were separated by electrophoresis with 10%–12% sodium dodecyl sulfate polyacrylamide gel (SDS‐PAGE) and then transferred onto 0.22 μm polyvinylidene difluoride membranes (PVDF; #IPVH00010, Millipore). The membranes were blocked in 5% BSA dissolved in Tris‐buffered saline containing 0.1% Tween‐20 for 2 h at room temperature and then were incubated overnight at 4°C with primary antibodies, including GFAP (#ab7260, Abcam, 1:1000), β Tublin III (#MAB1637, Millipore, 1:1000), and STAT3, p‐STAT3, P38, p‐P38, ERK1/2, p‐ERK1/2, AKT, p‐AKT, JNK2, p‐JNK2(#4904, 9145, 8690, 4511, 4695, 9101, 4685, 4060, 9258, 4668, Cell Signaling, all in 1:1000) and β‐actin (#A01263, Boster Biological Technology, 1:20,000). After washing, the membranes were incubated with the secondary antibodies (HRP conjugated anti‐rabbit or anti‐mouse IgG) for 2 h at room temperature. […] All data were analyzed with Image J (version 1.61).

NSCs [1] = test: Cell cycle analysis by FACS, proliferation index; details: third day, mean ± SD, n = 3
Protocol: (§2) NSCs survival and growth were analyzed by using cell counting kit‐8 (#CK04, Dojindo, CCK‐8). NSCs were randomly allocated in the Control, TAT‐scramble, TAT‐KIR, IL‐6, and TAT‐KIR+IL6 groups. All NSCs seeded into 96‐well plates at 5 × 10^4 cells/ml and cultured in growth medium for 24 h. IL‐6 in the concentration of 100 ng/ml was applied to mimic inflammatory condition. Thirty minutes later, TAT‐KIR or TAT‐scramble was added into the culture system. Cell viability of each group was observed by Universal Microplate Spectrophotometer (QuantTM, BioTek) at first, third, and fifth day after peptide administration (Figure 3A). Optical density (OD) values at 450 nm were measured. Immunocytochemistry staining with ki67 (#ab16667, Abcam, 1:300) was used to assess NSC proliferation. Cell cycles were analyzed by FACS at third day after peptide administration. The rates of cells in G0/G1, S, and G2/M were measured, and the proliferation index (PI) {PI = (S + G2/M)/([…] + S + G2/M) × 100%} was calculated, respectively. In each independent experiment, the procedures were carried out in triplicate.

p‐JNK2 = test: Western blotting, p-JNK2/JNK2; details: mean ± SD, n = 3
Protocol: (§3) NSCs at 1 × 10^6 cells/ml in 6‐well plate were treated with IL‐6 and TAT‐KIR as above. Cells were harvested at 3 h, 6 h, 12 h, 24 h, or 7 days after treatment. Cells were suspended in lysis buffer containing 150 μl RIPA (#89900, Pierce) protease and phosphatase inhibitor cocktail (#4693159001 and 04906845001, Roche). Cell lysates were incubated on ice for 20 min and centrifuged at 12,000 rpm for 15 min at 4°C. The proteins in supernatant were separated by electrophoresis with 10%–12% sodium dodecyl sulfate polyacrylamide gel (SDS‐PAGE) and then transferred onto 0.22 μm polyvinylidene difluoride membranes (PVDF; #IPVH00010, Millipore). The membranes were blocked in 5% BSA dissolved in Tris‐buffered saline containing 0.1% Tween‐20 for 2 h at room temperature and then were incubated overnight at 4°C with primary antibodies, including GFAP (#ab7260, Abcam, 1:1000), β Tublin III (#MAB1637, Millipore, 1:1000), and STAT3, p‐STAT3, P38, p‐P38, ERK1/2, p‐ERK1/2, AKT, p‐AKT, JNK2, p‐JNK2(#4904, 9145, 8690, 4511, 4695, 9101, 4685, 4060, 9258, 4668, Cell Signaling, all in 1:1000) and β‐actin (#A01263, Boster Biological Technology, 1:20,000). After washing, the membranes were incubated with the secondary antibodies (HRP conjugated anti‐rabbit or anti‐mouse IgG) for 2 h at room temperature. The membranes were visualized by an enhanced chemiluminescence (ECL) kit. All data were analyzed with Image J (version 1.61).

NSCs [2] = test: Ki67 immunocytochemistry, NSC proliferation; details: 3 days, mean ± SD
Protocol: as §2

p‐STAT3 = test: Western blotting, p-STAT3/STAT3; details: for rate of p-STAT3 to STAT3: differentiation medium, 7 days, mean ± SD, n = 3
Protocol: as §3

p‐AKT = test: Western blotting, p-AKT/AKT; details: for rate of p-AKT to AKT: mean ± SD, n = 3
Protocol: as §3

p‐ERK1/2 = test: Western blotting, p-ERK1/2 / ERK1/2; details: mean ± SD, n = 3
Protocol: as §1

β tubulin III = test: Western blotting, β tubulin III expression; details: mean ± SD, n = 3
Protocol: as §1

NSCs [3] = test: NSCs differentiation, immunostaining of GFAP and β tubulin III positive cells; details: 7 DIV, mean ± SD, n = 9
Protocol: NSCs at 1 × 10^5 cells/ml were seeded into 24‐well plates allocated randomly in Control, TAT‐KIR, IL‐6, and TAT‐KIR+IL6 groups. After 24 h culture with differentiation media, IL‐6 and TAT‐KIR were added into the medium as above order and reapplied every other day (Figure 4A). Cells were harvested at 7 DIV. Immunocytochemical staining was performed with different antibodies, including GFAP and β Tublin III. […] Then the numbers of GFAP positive and β Tubulin III positive cells were counted, and the percentages of differentiated cells were calculated by using Image J (version 1.61).

[4] = substance alone, 7 days differentiation
[5] = substance alone, PI = (S + G2/M)/(all phases) × 100%
[6] = substance alone, 3 h after treatment
[7] = substance alone, growth medium, IL-6 100 ng/ml, TAT-KIR 3 μM, n = 9 figures from three experiments
[8] = substance alone, differentiation medium
[9] = TAT-KIR together with IL-6, 7 days differentiation
[10] = TAT-KIR together with IL-6 100 ng/ml
[11] = TAT-KIR together with IL-6, treatment for 3 h

IL‐6: inflammatory cytokine, 100 ng/ml applied to mimic inflammatory condition [reference compound]
GFAP expression (Western blotting) (GFAP; [4]): 1.30 ± 0.127 | proliferation index (PI) (NSCs [1]; [5]): 34.61 ± 4.12% | percentage of cells in G0/G1 phase (NSCs [1]; substance alone): 65.39 ± 4.12% | percentage of cells in S phase (NSCs [1]; substance alone): 28.14 ± 2.79% | p-JNK/JNK (p‐JNK2; [6]): 0.54 ± 0.056 | p-JNK/JNK (p‐JNK2; substance alone, 6 h after treatment): 0.67 ± 0.062 | rate of p-JNK2 to JNK2 (p‐JNK2; [4]): 0.63 ± 0.049 | percentage of Ki67 positive proliferating cells (Ki67/DAPI) (NSCs [2]; [7]): 54.33 ± 10.29% | rate of p-STAT3 to STAT3 (p‐STAT3; substance alone): 0.88 ± 0.093 | rate of p-AKT to AKT (p‐AKT; [4]): 1.05 ± 0.081 | rate of p-ERK1/2 to ERK1/2 (p‐ERK1/2; [4]): 0.75 ± 0.070 | β tubulin III expression (Western blotting) (β tubulin III; [4]): 1.22 ± 0.044 | percentage of GFAP positive cells (astrocytic differentiation) (NSCs [3]; [8]): 45.72 ± 7.50% | percentage of β tubulin III positive cells (neuronal differentiation) (NSCs [3]; [8]): 32.33 ± 5.68%

RKKRRQRRR‐LR‐LKTFSSKSEYQL‐V [TAT‐KIR]
GFAP expression (Western blotting) (GFAP; [9]): 0.88 ± 0.091 | percentage of cells in G0/G1 phase (NSCs [1]; [10]): 73.18 ± 3.04% | percentage of cells in S phase (NSCs [1]; [10]): 19.31 ± 3.32% | proliferation index (PI) (NSCs [1]; [10]): 26.82 ± 3.04% | proliferation index (PI) (NSCs [1]; [5]): 14.34 ± 1.98% | percentage of cells in G0/G1 phase (NSCs [1]; substance alone): 85.66 ± 1.98% | percentage of cells in S phase (NSCs [1]; substance alone): 9.56 ± 0.22% | rate of p-JNK2 to JNK2 (p‐JNK2; [9]): 0.63 ± 0.042 | p-JNK/JNK (p‐JNK2; [6]): 0.30 ± 0.040 | p-JNK/JNK (p‐JNK2; substance alone, 12 h after treatment): 0.50 ± 0.090 | rate of p-JNK2 to JNK2 (p‐JNK2; [4]): increased trend | percentage of Ki67 positive proliferating cells (Ki67/DAPI) (NSCs [2]; TAT-KIR 3 μM applied together with IL-6 100 ng/ml, n = 9): 41.33 ± 7.72% | percentage of Ki67 positive proliferating cells (Ki67/DAPI) (NSCs [2]; [7]): 20.67 ± 3.74% | rate of p-STAT3 to STAT3 (p‐STAT3; [10]): 0.61 ± 0.025 | p-STAT3 expression of IL-6-induced NSCs (p‐STAT3; [11]): dramatically reduced | rate of p-STAT3 to STAT3 (p‐STAT3; substance alone): did not affect | rate of p-AKT to AKT (p‐AKT; [9]): 0.87 ± 0.037 | p-AKT expression of IL-6-induced NSCs (p‐AKT; [11]): dramatically reduced | rate of p-ERK1/2 to ERK1/2 (p‐ERK1/2; [9]): 0.68 ± 0.041 | β tubulin III expression (Western blotting) (β tubulin III; [9]): 1.21 ± 0.025 | percentage of GFAP positive cells (astrocytic differentiation) (NSCs [3]; [10]): 36.78 ± 6.81% | percentage of β tubulin III positive cells (neuronal differentiation) (NSCs [3]; [10]): 30.33 ± 4.39% | percentage of GFAP positive cells (astrocytic differentiation) (NSCs [3]; [8]): 30.67 ± 4.66% | percentage of β tubulin III positive cells (neuronal differentiation) (NSCs [3]; [8]): 26.78 ± 4.79%
